# Reference: ChEMBL document CHEMBL5528082 (J Med Chem, 2024)
# The source made the active and inactive calls. The rule behind the calls is not given here.
# Key:
# Dihydrofolate reductase [1] = biological target: T1, Dihydrofolate reductase (Homo sapiens, UniProt P00374); assay: Inhibition of human DHFR
# T1 sequence (P00374 whole entry): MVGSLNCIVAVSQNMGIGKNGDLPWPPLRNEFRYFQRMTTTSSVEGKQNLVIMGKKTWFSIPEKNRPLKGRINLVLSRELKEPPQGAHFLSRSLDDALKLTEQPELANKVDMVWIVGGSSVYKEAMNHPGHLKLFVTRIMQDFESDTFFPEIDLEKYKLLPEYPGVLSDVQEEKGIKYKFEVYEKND
# Staphylococcus aureus [2] = assay: Antibacterial activity against TMP-resistant Staphylococcus aureus BHKS 227 incubated for 24 hrs by CLSI based broth microdilution assay; assay type: functional
# Staphylococcus aureus [3] = assay: Antibacterial activity against TMP-resistant Staphylococcus aureus BHKS 721 incubated for 24 hrs by CLSI based broth microdilution assay; assay type: functional
# [4] = Cytotoxicity against human NCM460 cells assessed as inhibition rate of cell growth at 100 uM incubated for 24 hrs by CCK8 assay relative to control; assay type: toxicity, cell-based
# Dihydrofolate reductase [5] = biological target: T2, Dihydrofolate reductase (Staphylococcus aureus, UniProt P0A017); assay: Inhibition of Staphylococcus aureus DHFR expressed in Escherichia coli BL21 (DE3) using DHF as substrate preincubated for 10 mins followed by substrate addition measured for 10 mins in presence of NADPH by spectrophotometry
# T2 sequence (P0A017 whole entry): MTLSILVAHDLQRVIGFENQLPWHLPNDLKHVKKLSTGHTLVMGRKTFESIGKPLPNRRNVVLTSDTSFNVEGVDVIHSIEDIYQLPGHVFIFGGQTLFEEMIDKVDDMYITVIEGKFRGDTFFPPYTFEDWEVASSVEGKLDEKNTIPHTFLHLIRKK
# Staphylococcus aureus [6] = assay: Bactericidal activity against Staphylococcus aureus ATCC 25923 assessed as bacterial growth suppression measured for 24 hrs by time kill assay; assay type: functional, organism-based
# [7] = Acute toxicity in C57 mouse assessed as animal death at 800 mg/kg, po measured after 1 week; assay type: organism-based; conditions: in vivo, 168 h, time 1 weeks
# [8] = Acute toxicity in C57 mouse assessed as body weight loss at 400 to 800 mg/kg, po measured for 2 days; assay type: organism-based; conditions: in vivo, 48 h, dose 400-800 mg/kg, time 2 day
# [9] = Acute toxicity in C57 mouse assessed as body weight loss at 400 to 800 mg/kg, po measured for 4 days; assay type: organism-based; conditions: in vivo, 96 h, dose 400-800 mg/kg, time 4 day
# [10] = Acute toxicity in C57 mouse assessed as liver inflammation at 800 mg/kg, po measured after 1 week by biochemical analysis; assay type: organism-based; conditions: in vivo, 168 h, time 1 weeks
# [11] = Acute toxicity in C57 mouse assessed as damage in heart at 800 mg/kg, po measured after 1 week by H and E staining based analysis; assay type: organism-based; conditions: in vivo, 168 h, time 1 weeks
# [12] = Acute toxicity in C57 mouse assessed as damage in spleen at 800 mg/kg, po measured after 1 week by H and E staining based analysis; assay type: organism-based; conditions: in vivo, 168 h, time 1 weeks
# [13] = Acute toxicity in C57 mouse assessed as damage in kidney at 800 mg/kg, po measured after 1 week by H and E staining based analysis; assay type: organism-based; conditions: in vivo, 168 h, time 1 weeks
# [14] = Acute toxicity in C57 mouse assessed as damage in lung at 800 mg/kg, po measured after 1 week by H and E staining based analysis; assay type: organism-based; conditions: in vivo, 168 h, time 1 weeks
# [15] = Metabolic stability in human liver microsomes assessed as half life at 3 uM measured for 120 mins by LC-MS/MS analysis; assay type: ADME, Microsome; conditions: 2 h
# [16] = Metabolic stability in human liver microsomes assessed as clearance rate at 3 uM measured for 120 mins by LC-MS/MS analysis; assay type: ADME, Microsome; conditions: 2 h
# [17] = Metabolic stability in mouse liver microsomes assessed as half life at 3 uM measured for 120 mins by LC-MS/MS analysis; assay type: ADME, Microsome; conditions: 2 h
# [18] = Tmax in Sprague-Dawley rat at 5 mg/kg, iv measured for 24 hrs by LC/MS analysis; assay type: ADME, organism-based; conditions: in vivo
# [19] = AUC (0 to t) in Sprague-Dawley rat at 5 mg/kg, iv measured for 24 hrs by LC/MS analysis; assay type: ADME, organism-based; conditions: in vivo
# [20] = Tmax in Sprague-Dawley rat at 15 mg/kg, po measured for 24 hrs by LC/MS analysis; assay type: ADME, organism-based; conditions: in vivo
# [21] = AUC (0 to t) in Sprague-Dawley rat at 15 mg/kg, po measured for 24 hrs by LC/MS analysis; assay type: ADME, organism-based; conditions: in vivo
# [22] = Oral bioavailability in Sprague-Dawley rat at 15 mg/kg measured for 24 hrs by LC/MS analysis; assay type: ADME, organism-based; conditions: in vivo
# Staphylococcus aureus [23] = assay: Antibacterial activity against methicillin-resistant Staphylococcus aureus ATCC 33591 infected in C57 mouse model assessed as wound healing at 2 to 10 mg/kg administered once a day for 3 days consecutively and measured after 24 hrs post-last dose; assay type: functional, organism-based; conditions: dose 2-10 mg/kg, time 4.0 day
# Staphylococcus aureus [24] = assay: Antibacterial activity against methicillin-resistant Staphylococcus aureus ATCC 33591 infected in C57 mouse model assessed as reduction in bacterial count at 2 to 10 mg/kg administered once a day for 3 days consecutively and measured after 24 hrs post-last dose by colony counting method; assay type: functional, organism-based; conditions: dose 2-10 mg/kg, time 4.0 day
# Staphylococcus aureus [25] = assay: Antibacterial activity against methicillin-resistant Staphylococcus aureus ATCC 33591 infected in C57 mouse model assessed as decrease in pathological change at 2 to 10 mg/kg administered once a day for 3 days consecutively and measured after 24 hrs post-last dose by H and E staining based analysis; assay type: functional, organism-based; conditions: dose 2-10 mg/kg, time 4.0 day
# Mus musculus = assay: Induction of inflammatory cell infiltration in C57 mouse model infected with methicillin-resistant Staphylococcus aureus ATCC 33591 at 2 to 10 mg/kg administered once a day for 3 days consecutively and measured after 24 hrs post-last dose by H and E staining based analysis; assay type: functional, organism-based; conditions: dose 2-10 mg/kg, time 4.0 day
# Dihydrofolate reductase [26] = biological target: T2, Dihydrofolate reductase; assay: Binding affinity to Staphylococcus aureus DHFR expressed in Escherichia coli BL21 (DE3) assessed dissociation constant by ITC analysis
# Staphylococcus aureus [27] = assay: Synergistic antibacterial activity against Staphylococcus aureus ATCC 25923 assessed as fractional inhibitory concentration index incubated for 24 hrs in presence of SMX by CLSI based broth microdilution assay; assay type: functional
# Staphylococcus aureus [28] = assay: Synergistic antibacterial activity against Staphylococcus aureus USA 300 assessed as fractional inhibitory concentration index incubated for 24 hrs in presence of SMX by CLSI based broth microdilution assay; assay type: functional
# Staphylococcus aureus [29] = assay: Synergistic antibacterial activity against TMP-resistant Staphylococcus aureus BHKS 227 assessed as fractional inhibitory concentration index incubated for 24 hrs in presence of SMX by CLSI based broth microdilution assay; assay type: functional
# Staphylococcus aureus [30] = assay: Synergistic antibacterial activity against TMP-resistant Staphylococcus aureus BHKS 721 assessed as fractional inhibitory concentration index incubated for 24 hrs in presence of SMX by CLSI based broth microdilution assay; assay type: functional
# Staphylococcus aureus [31] = assay: Synergistic antibacterial activity against TMP-resistant Staphylococcus aureus BHKS 723 assessed as fractional inhibitory concentration index incubated for 24 hrs in presence of SMX by CLSI based broth microdilution assay; assay type: functional
# Staphylococcus aureus [32] = assay: Synergistic antibacterial activity against TMP-resistant Staphylococcus aureus BHKS 231 assessed as fractional inhibitory concentration index incubated for 24 hrs in presence of SMX by CLSI based broth microdilution assay; assay type: functional
# Staphylococcus aureus [33] = assay: Antibacterial activity against TMP-resistant Staphylococcus aureus BHKS 231 incubated for 24 hrs by CLSI based broth microdilution assay; assay type: functional
# [34] = tested on: Dihydrofolate reductase (Staphylococcus aureus); conditions: dose 100.0 nM
# [35] = biological target: Dihydrofolate reductase (Staphylococcus aureus) (UniProt P0A017); conditions: dose 10.0 µM, time 10.0 min
# Chain of Dihydrofolate reductase (Staphylococcus aureus) (UniProt P0A017) (P0A017 2-159 limits assumed): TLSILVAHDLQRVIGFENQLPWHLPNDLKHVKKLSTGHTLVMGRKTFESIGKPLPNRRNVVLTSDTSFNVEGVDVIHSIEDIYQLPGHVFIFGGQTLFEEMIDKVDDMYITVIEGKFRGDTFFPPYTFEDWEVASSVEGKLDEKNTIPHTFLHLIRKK
smiles,measurement,setting,value
CC(C)c1cc(OCC2CC2)c(I)cc1Oc1cnc(N)nc1N,IC50,Dihydrofolate reductase [1],4.19 µM
same,MIC,Staphylococcus aureus [2],0.5 µg/mL
same,MIC,Staphylococcus aureus [3],4 µg/mL
same,"inhibition at 24 h, 100 µM",[4],20.2%
same,IC50,Dihydrofolate reductase [5],0.00097 µM
same,Activity,Staphylococcus aureus [6],Dose-Dependent Effect
same,Activity,[7],Non-Toxic
same,Activity,[8],Toxic
same,Activity,[9],Non-Toxic
same,Activity,[10],Toxic
same,Activity,[11],Non-Toxic
same,Activity,[12],Non-Toxic
same,Activity,[13],Non-Toxic
same,Activity,[14],Non-Toxic
same,t1/2,[15],146.1 min
same,CLH,[16],0.7 µL/min/mg
same,t1/2,[17],26.2 min
same,Tmax,[18],4.8 min
same,AUC(0-t) at 24 h,[19],3240 ng·h/mL
same,Tmax,[20],79.8 min
same,AUC(0-t) at 24 h,[21],3920 ng·h/mL
same,bioavailability,[22],40.7%
same,Activity,Staphylococcus aureus [23],Active
same,Activity,Staphylococcus aureus [24],Active
same,Activity,Staphylococcus aureus [25],Active
same,Activity,Mus musculus,Active
same,Kd,Dihydrofolate reductase [26],1.54 µM
same,fractional inhibitory concentration index (FICI),Staphylococcus aureus [27],0.066
same,fractional inhibitory concentration index (FICI),Staphylococcus aureus [28],0.022
same,fractional inhibitory concentration index (FICI),Staphylococcus aureus [29],0.27
same,fractional inhibitory concentration index (FICI),Staphylococcus aureus [30],0.375
same,fractional inhibitory concentration index (FICI),Staphylococcus aureus [31],0.156
same,fractional inhibitory concentration index (FICI),Staphylococcus aureus [32],1
same,MIC,Staphylococcus aureus [33],32 µg/mL
same,inhibition,[34],47.4%
same,ΔTm,[35],18 °C
